Assay results published in article PMC13095444, “Discovery of RGS2-FBXO44 interaction inhibitors using a cell-based NanoBit assay” (Molecular Pharmacology, 2025).

Assays:
[1] = tested on: HEK-293T-RGS2-FBXO44 NanoBit cells; assay: Cell viability assay (GF-AFC fluorescence) multiplexed with NanoBit; type: cell-based, Human; settings: 100 μM, 16–18 hours, fresh powder
Experimental: The cells were plated in DMEM without phenol red (Gibco, #21063), 0.1% BSA in a white, tissue culture-treated 384-well plate (Perkin Elmer) at 15,000 cells/well, unless indicated otherwise, and allowed to attach. The plate was centrifuged at 212 × g for 30 seconds to aid in even cell adherence. Compound treatments were initiated 4–5 hours after plating. Following indicated treatment times, media was removed from the plate using BioTek ELx405 plate washer. Additionally, 10 μL of Hank’s Balanced Salt solution (HBSS) with 0.1% BSA was added to each well, followed by 5 μL of glycyl-phenylalanyl-aminofluorocoumarin (GF-AFC; MP Biomedicals) diluted 1:1000 in 100 mM HEPES. Plates were then centrifuged at 212 × g for 30 seconds and then incubated at 37 °C for 30 minutes. Fluorescence was detected on a Synergy Neo2 multimode plate reader (BioTek/Agilent).
Our primary assay using the HEK-293T RGS2-FBXO44 NanoBit cell line was extensively optimized to ensure maximum quality for screening. Coupling a fluorescent cell viability assay with our screen would allow us to rule out cytotoxic compounds while also hopefully reducing outliers from pipetting errors while plating cells. Thus, we multiplexed our NanoBit assay with cell viability using a cell-permeable fluorogenic protease substrate (glycyl-phenylalanyl-aminofluorocoumarin; GF-AFC; [Niles et al, 2007]), which can be combined with a luminescent readout without interfering with the luciferase signal. We previously utilized a similar multiplexing strategy in several screens ([Sjögren et al, 2012]; [Raveh et al, 2014]; [Sjögren et al, 2015]). We assessed and optimized treatment conditions (time, temperature, and reagent volume), cell density, buffer composition, and DMSO tolerance. In addition to the supplied proprietary LCS buffer (Promega), we also tested DMEM, 0.1% BSA, PBS, and HBSS (Supplemental Fig. 1A–C). […] The luminescent signal was stable up to 45 minutes after reagent addition, and we chose to run subsequent assays using 20 minutes of incubation time (Supplemental Fig. 1E). We also observed no effect on either viability or luminescence signal at DMSO concentrations <1% (Data not shown).
HEK-293T-RGS2-FBXO44 NanoBit cells were treated for 16–18 hours with compound at 100 μM. This relatively high concentration was chosen because of the challenging nature of our assay (intracellular PPI inhibition). Parental HEK-293T cells were used as a negative control. […] Based on these criteria, 97 compounds were identified as hits from our primary screen (6.1% initial hit rate). To confirm hits, the same assay was repeated in triplicate, which delivered 34 compounds that reached the threshold for inhibition in at least 2 replicates with <25% cell toxicity (Fig. 2C; Supplemental Table 1), thus rendering a final hit rate of 2.1%.

RGS2 protein levels = assay: PathHunter ProLabel assay of RGS2 protein levels in HEK-293T-RGS2-PL cells; type: cell-based, Human; settings: for RGS2 protein levels (PathHunter ProLabel): 100 μM compound overnight (16–18 hours)
Experimental: The PathHunter ProLabel assay was run as described previously ([Sjögren et al, 2012]; [Raveh et al, 2014]; [Sjögren et al, 2015]). Briefly, HEK-293T-RGS2-PL cells were plated at 10,000 cells per well in a white, tissue culture-treated 384-well plate (Perkin Elmer) in DMEM without phenol red (#21063; Gibco) and 0.1% BSA. The cells were allowed to attach for 4 hours, followed by treatment with DMSO, 10 μM MG-132, or 100 μM of compounds. Prior to the detection of RGS2 protein levels by the ProLabel assay, a fluorescent viability assay was performed in the same well, as described above. PathHunter ProLabel reagents (DiscoveRx) were prepared according to the manufacturer’s directions and added to the plate, followed by incubation at room temperature for 1 hour. Luminescence corresponding to RGS2-PL protein levels was detected using a Synergy Neo2 multimode plate reader.
Compounds that inhibit the interaction between RGS2 and FBXO44 would protect RGS2 from proteasomal degradation and result in increased RGS2 protein levels. We therefore next assayed our 20 hits for their ability to increase RGS2 protein levels. We first performed western blot analysis of HEK-293T cells transfected with RGS2-HA and FLAG-FBXO44 and treated overnight (16–18 hours) with 100 μM compound, using proteasome inhibitor MG-132 as a positive control (10 μM). […] Although somewhat disappointing, given the limited sensitivity of western blot, we opted to also test the compounds using an alternate assay paradigm. Specifically, we used the PathHunter ProLabel assay (DiscoveRx), an enzyme complementation assay in which a protein of interest is tagged with a 4 kDa part of β-galactosidase (ProLabel; PL). The chemiluminescent signal in the assay correlates with relative levels of the PL-tagged target protein. We previously developed a stable HEK-293T-RGS2-PL cell line that was used in several high-throughput screening campaigns ([Sjögren et al, 2012]; [Raveh et al, 2014]; [Sjögren et al, 2015]). The PathHunter ProLabel assay offers a more quantitative measurement of protein levels, with a larger dynamic range than a western blot. We treated HEK-293T-RGS2-PL cells overnight (16–18 hours) with 100 μM compound and used 10 μM MG-132 as a positive control.
As a further validation of the action of compound 10, we assessed whether the ability to increase RGS2 protein levels was dependent on FBXO44 using the PathHunter ProLabel assay. HEK-293T-RGS2-PL cells transfected with either nontargeting (NT) or FBXO44-targeting siRNA were treated overnight (16–18 hours) with vehicle or compound 10 (100 μM). […] Thus, compound 10 increases RGS2 protein levels through a mechanism that is dependent on FBXO44.

CCC1CCCCN1S(=O)(=O)c1cc(Br)ccc1OC (stereo not shown) [Compound 10]
Viability (% of Control) [1]: 69.3∗∗∗∗ % of Control | RGS2 protein levels (PathHunter ProLabel) (RGS2 protein levels): significantly increased RGS2 protein levels | RGS2 protein levels (PathHunter ProLabel) (RGS2 protein levels; listed as compound 10): significantly increased | Ability to increase RGS2 protein levels after siRNA-mediated FBXO44 knockdown (PathHunter ProLabel) (RGS2 protein levels; 100 μM overnight, FBXO44-targeting vs nontargeting siRNA): diminished ability
